Values joined by “and” are separate entries in the source; they are usually repeats but may differ in a detail not shown here. Equal values may be shown once. Inconclusive results and toxic doses are left out. No stated cut-off is given here; in the data, active means T/C of 150% or more; inactive means T/C below 125%. Peptide text beside a SMILES is read from it. * marks the point of attachment. Cbz = O=C(OCc1ccccc1)*; CH2Cl = ClC*
Tested on: L1210 leukemia ip in BDF1 mice, survival T/C
Assay: NCI In Vivo Anticancer Drug Screen. Data for tumor model L1210 Leukemia (intraperitoneal) in B6D2F1 (BDF1) mice
Settings: endpoint: mean survival time, higher = longer survival
Summary of the method: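 Each compound was tested against a transplantable tumor grown in mice. The endpoint was survival, with treated animals benchmarked against vehicle controls as a simple ratio.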

[1] = dose: 100.0 mg/kg/injection, schedule: Q04DX003 (ip), vehicle: saline with Tween-80
[2] = dose: 200.0 mg/kg/injection, schedule: Q04DX003 (ip), vehicle: saline with Tween-80
[3] = dose: 100.0 mg/kg/injection, schedule: Q01DX001 (ip), vehicle: Klucel (hydroxypropylcellulose) (HPC)
[4] = dose: 200.0 mg/kg/injection, schedule: Q01DX001 (ip), vehicle: Klucel (hydroxypropylcellulose) (HPC)
[5] = dose: 400.0 mg/kg/injection, schedule: Q01DX001 (ip), vehicle: Klucel (hydroxypropylcellulose) (HPC)

Measured: T/C

Cc1ncc(CC#N)c2c1OC(C)(C)OC2
inactive: dose: 12.5 mg/kg/injection, schedule: Q01DX001 (ip), vehicle: carboxymethylcellulose (CMC) 107 % of control | dose: 25.0 mg/kg/injection, schedule: Q01DX001 (ip), vehicle: carboxymethylcellulose (CMC) 104 % of control | dose: 50.0 mg/kg/injection, schedule: Q01DX001 (ip), vehicle: carboxymethylcellulose (CMC) 101 % of control

CCOC(=O)CC(SP(=S)(Oc1ccccc1)Oc1ccccc1)C(=O)OCC (centres undefined)
inactive: dose: 100.0 mg/kg/injection, schedule: Q04DX002 (sc), vehicle: olive oil, sesame oil, peanut oil 100 % of control | dose: 200.0 mg/kg/injection, schedule: Q04DX002 (sc), vehicle: olive oil, sesame oil, peanut oil 103 % of control | dose: 400.0 mg/kg/injection, schedule: Q04DX002 (sc), vehicle: olive oil, sesame oil, peanut oil 93 % of control

C=C1C(=O)OC2CC(C)CCC/C(CO)=C/C(OC(=O)/C(=C/CO)CO)C12 (centres undefined)
inactive: dose: 3.75 mg/kg/injection, schedule: Q04DX003 (ip), vehicle: saline 89 % of control | dose: 4.9 mg/kg/injection, schedule: Q01DX009 (ip), vehicle: acetone 93 % of control | dose: 7.5 mg/kg/injection, schedule: Q01DX001 (ip), vehicle: acetone 97 % of control | dose: 7.5 mg/kg/injection, schedule: Q01DX009 (ip), vehicle: acetone 98 % of control | dose: 7.5 mg/kg/injection, schedule: Q04DX003 (ip), vehicle: saline 100 % of control | dose: 11.0 mg/kg/injection, schedule: Q01DX009 (ip), vehicle: acetone 93 % of control | dose: 15.0 mg/kg/injection, schedule: Q01DX001 (ip), vehicle: acetone 103 % of control | dose: 15.0 mg/kg/injection, schedule: Q04DX003 (ip), vehicle: saline 99 % of control

CCN(CC)C(=O)Nc1cccc(OC(=O)NC)c1
inactive: [1] 99 % of control | [2] 98 % of control

COc1ccc(/C=N\NC(=O)CCCC(=O)N/N=C/c2ccc(OC)cc2)cc1
inactive: dose: 50.0 mg/kg/injection, schedule: Q01DX001 (ip), vehicle: other 93 % of control | dose: 100.0 mg/kg/injection, schedule: Q01DX001 (ip), vehicle: other 88 % of control | dose: 200.0 mg/kg/injection, schedule: Q01DX001 (ip), vehicle: other 90 % of control

CCCNC(=O)CS(=O)(=O)c1ccc(N)cc1
inactive: [1] 97 % of control | [2] 95 % of control | dose: 400.0 mg/kg/injection, schedule: Q04DX003 (ip), vehicle: saline with Tween-80 97 % of control

CCC(C)C(C1=C(O)c2ccccc2C(=O)C1=O)C1=C(O)c2ccccc2C(=O)C1=O (centres undefined)
inactive: dose: 75.0 mg/kg/injection, schedule: Q01DX001 (ip), vehicle: carboxymethylcellulose (CMC) 97 % of control | dose: 150.0 mg/kg/injection, schedule: Q01DX001 (ip), vehicle: carboxymethylcellulose (CMC) 104 % of control

CC(C)CC(NC(=O)OCc1ccccc1)C(=O)NC(Cc1ccccc1)C(=O)CCl (stereo not drawn) (Cbz-Leu-Phe-CH2Cl; configuration not given here)
inactive: dose: 25.0 mg/kg/injection, schedule: Q04DX003 (ip), vehicle: Klucel (hydroxypropylcellulose) (HPC) 104 % of control | dose: 50.0 mg/kg/injection, schedule: Q04DX003 (ip), vehicle: Klucel (hydroxypropylcellulose) (HPC) 102 % of control | [3] 90 % of control | dose: 100.0 mg/kg/injection, schedule: Q04DX003 (ip), vehicle: Klucel (hydroxypropylcellulose) (HPC) 96 % of control and 89 % of control | [4] 88 % of control | [5] 103 % of control

CCC1(c2ccccc2)C(=O)N(COCc2ccccc2)C(=O)N(COCc2ccccc2)C1=O
inactive: dose: 100.0 mg/kg/injection, schedule: Q01DX009 (ip), vehicle: saline with Tween-80 98 % of control | dose: 100.0 mg/kg/injection, schedule: Q04DX002 (ip), vehicle: saline with Tween-80 98 % of control | dose: 200.0 mg/kg/injection, schedule: Q01DX009 (ip), vehicle: saline with Tween-80 102 % of control | dose: 200.0 mg/kg/injection, schedule: Q04DX002 (ip), vehicle: saline with Tween-80 95 % of control | dose: 400.0 mg/kg/injection, schedule: Q01DX009 (ip), vehicle: saline with Tween-80 95 % of control | dose: 400.0 mg/kg/injection, schedule: Q04DX002 (ip), vehicle: saline with Tween-80 98 % of control

CCCCCSC
inactive: dose: 100.0 mg/kg/injection, schedule: Q01DX009 (ip), vehicle: saline 93 % of control | dose: 100.0 mg/kg/injection, schedule: Q04DX003 (ip), vehicle: saline 102 % of control | dose: 200.0 mg/kg/injection, schedule: Q01DX009 (ip), vehicle: saline 95 % of control | dose: 200.0 mg/kg/injection, schedule: Q04DX003 (ip), vehicle: saline 105 % of control | dose: 400.0 mg/kg/injection, schedule: Q01DX009 (ip), vehicle: saline 88 % of control | dose: 400.0 mg/kg/injection, schedule: Q04DX003 (ip), vehicle: saline 100 % of control

CC(C(=O)O)C(N)C(=O)O (centres undefined)
inactive: dose: 75.0 mg/kg/injection, schedule: Q04DX003 (ip), vehicle: saline 102 % of control | [3] 88 % of control | dose: 100.0 mg/kg/injection, schedule: Q01DX001 (ip), vehicle: saline 98 % of control | dose: 150.0 mg/kg/injection, schedule: Q04DX003 (ip), vehicle: saline 102 % of control | [4] 97 % of control | dose: 200.0 mg/kg/injection, schedule: Q01DX001 (ip), vehicle: saline 96 % of control | dose: 300.0 mg/kg/injection, schedule: Q04DX003 (ip), vehicle: saline 102 % of control | [5] 92 % of control | dose: 400.0 mg/kg/injection, schedule: Q01DX001 (ip), vehicle: saline 95 % of control

CCCCN(CC)C(=S)S[Te](SC(=S)N(CC)CCCC)(SC(=S)N(CC)CCCC)SC(=S)N(CC)CCCC
inactive: dose: 100.0 mg/kg/injection, schedule: Q01DX001 (ip), vehicle: carboxymethylcellulose (CMC) 104 % of control | dose: 200.0 mg/kg/injection, schedule: Q01DX001 (ip), vehicle: carboxymethylcellulose (CMC) 101 % of control | dose: 400.0 mg/kg/injection, schedule: Q01DX001 (ip), vehicle: carboxymethylcellulose (CMC) 89 % of control
